# Laboratory results reported in PubChem BioAssay (NCI).
#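 Grown in 96-well plates, cells were treated for 48 hours with each compound at five concentrations. Insufficient inhibition: endpoint recorded as highest concentration tested. TGI is the concentration that stops growth completely.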
# Tests used:
# Assay in all cases: NCI-60 cell line screen, 48 h
# DMS 273 small cell lung = tested on: DMS 273 small cell lung
# HCT-15 colon = tested on: HCT-15 colon
# M19-MEL melanoma = tested on: M19-MEL melanoma
# SF-539 CNS = tested on: SF-539 CNS
# KM12 colon = tested on: KM12 colon
# HT29 colon = tested on: HT29 colon
# SK-OV-3 ovarian = tested on: SK-OV-3 ovarian
# SF-295 CNS = tested on: SF-295 CNS
# UACC-257 melanoma = tested on: UACC-257 melanoma
# NCI-H522 lung = tested on: NCI-H522 lung
# DMS 114 small cell lung = tested on: DMS 114 small cell lung
# ACHN renal = tested on: ACHN renal
# MALME-3M melanoma = tested on: MALME-3M melanoma
# CAKI-1 renal = tested on: CAKI-1 renal
# SK-MEL-28 melanoma = tested on: SK-MEL-28 melanoma
# TK-10 renal = tested on: TK-10 renal
# SK-MEL-5 melanoma = tested on: SK-MEL-5 melanoma
# 786-0 renal = tested on: 786-0 renal
# A549 NSCLC = tested on: A549 NSCLC
# HCT-116 colon = tested on: HCT-116 colon
# LXFL 529 NSCLC = tested on: LXFL 529 NSCLC
# HL-60(TB) leukemia = tested on: HL-60(TB) leukemia
# SNB-75 CNS = tested on: SNB-75 CNS
# U251 CNS = tested on: U251 CNS
# HOP-18 NSCLC = tested on: HOP-18 NSCLC
# LOX IMVI melanoma = tested on: LOX IMVI melanoma
# IGROV1 ovarian = tested on: IGROV1 ovarian
# CCRF-CEM leukemia = tested on: CCRF-CEM leukemia
# UO-31 renal = tested on: UO-31 renal
# OVCAR-5 ovarian = tested on: OVCAR-5 ovarian
# OVCAR-4 ovarian = tested on: OVCAR-4 ovarian
# OVCAR-8 ovarian = tested on: OVCAR-8 ovarian
# NCI-H226 lung = tested on: NCI-H226 lung
# UACC-62 melanoma = tested on: UACC-62 melanoma
# MOLT-4 leukemia = tested on: MOLT-4 leukemia
# SNB-78 CNS = tested on: SNB-78 CNS
# RPMI-8226 leukemia = tested on: RPMI-8226 leukemia
# RXF 393 renal = tested on: RXF 393 renal
# SN12C renal = tested on: SN12C renal
# SR leukemia = tested on: SR leukemia
# NCI-H23 lung = tested on: NCI-H23 lung
# NCI-H460 lung = tested on: NCI-H460 lung
# SW-620 colon = tested on: SW-620 colon
# COLO 205 colon = tested on: COLO 205 colon
# DLD-1 colon = tested on: DLD-1 colon
# HOP-92 NSCLC = tested on: HOP-92 NSCLC
# HOP-62 NSCLC = tested on: HOP-62 NSCLC
# SF-268 CNS = tested on: SF-268 CNS
# M14 melanoma = tested on: M14 melanoma
# SK-MEL-2 melanoma = tested on: SK-MEL-2 melanoma
# K-562 leukemia = tested on: K-562 leukemia
# OVCAR-3 ovarian = tested on: OVCAR-3 ovarian
# HCC-2998 colon = tested on: HCC-2998 colon
# KM20L2 colon = tested on: KM20L2 colon
# EKVX NSCLC = tested on: EKVX NSCLC
# SNB-19 CNS = tested on: SNB-19 CNS
# XF 498 CNS = tested on: XF 498 CNS
# A498 renal = tested on: A498 renal
smiles,measurement,setting,value
CC(C)C(N)=O,TGI,DMS 273 small cell lung,> 5000 µM
same,TGI,HCT-15 colon,> 5000 µM
same,TGI,M19-MEL melanoma,> 5000 µM
same,TGI,SF-539 CNS,> 5000 µM
same,TGI,KM12 colon,> 5000 µM
same,TGI,HT29 colon,> 5000 µM
same,TGI,SK-OV-3 ovarian,> 5000 µM
same,TGI,SF-295 CNS,> 5000 µM
same,TGI,UACC-257 melanoma,> 5000 µM
same,TGI,NCI-H522 lung,> 5000 µM
same,TGI,DMS 114 small cell lung,> 5000 µM
same,TGI,ACHN renal,> 5000 µM
same,TGI,MALME-3M melanoma,> 5000 µM
same,TGI,CAKI-1 renal,> 5000 µM
same,TGI,SK-MEL-28 melanoma,> 5000 µM
same,TGI,TK-10 renal,> 5000 µM
same,TGI,SK-MEL-5 melanoma,> 5000 µM
same,TGI,786-0 renal,> 5000 µM
same,TGI,A549 NSCLC,> 5000 µM
same,TGI,HCT-116 colon,> 5000 µM
same,TGI,LXFL 529 NSCLC,> 5000 µM
same,TGI,HL-60(TB) leukemia,> 5000 µM
same,TGI,SNB-75 CNS,> 5000 µM
same,TGI,U251 CNS,> 5000 µM
same,TGI,HOP-18 NSCLC,> 5000 µM
same,TGI,LOX IMVI melanoma,> 5000 µM
same,TGI,IGROV1 ovarian,> 5000 µM
same,TGI,CCRF-CEM leukemia,> 5000 µM
same,TGI,UO-31 renal,> 5000 µM
same,TGI,OVCAR-5 ovarian,> 5000 µM
same,TGI,OVCAR-4 ovarian,> 5000 µM
same,TGI,OVCAR-8 ovarian,> 5000 µM
same,TGI,NCI-H226 lung,> 5000 µM
same,TGI,UACC-62 melanoma,> 5000 µM
same,TGI,MOLT-4 leukemia,> 5000 µM
same,TGI,SNB-78 CNS,> 5000 µM
same,TGI,RPMI-8226 leukemia,> 5000 µM
same,TGI,RXF 393 renal,> 5000 µM
same,TGI,SN12C renal,> 5000 µM
same,TGI,SR leukemia,> 5000 µM
same,TGI,NCI-H23 lung,> 5000 µM
same,TGI,NCI-H460 lung,> 5000 µM
same,TGI,SW-620 colon,> 5000 µM
same,TGI,COLO 205 colon,> 5000 µM
same,TGI,DLD-1 colon,> 5000 µM
same,TGI,HOP-92 NSCLC,> 5000 µM
same,TGI,HOP-62 NSCLC,> 5000 µM
same,TGI,SF-268 CNS,> 5000 µM
same,TGI,M14 melanoma,> 5000 µM
same,TGI,SK-MEL-2 melanoma,> 5000 µM
same,TGI,K-562 leukemia,> 5000 µM
CN(C)C=C1C(Cl)=C(C=O)CC(C=O)=C1Cl,TGI,DMS 273 small cell lung,29 µM
same,TGI,HCT-15 colon,11.9 µM
same,TGI,M19-MEL melanoma,29.1 µM
same,TGI,SF-539 CNS,27.9 µM
same,TGI,KM12 colon,22.1 µM
same,TGI,HT29 colon,30 µM
same,TGI,SK-OV-3 ovarian,79.7 µM
same,TGI,SF-295 CNS,41.7 µM
same,TGI,UACC-257 melanoma,30.8 µM
same,TGI,NCI-H522 lung,4.14 µM
same,TGI,DMS 114 small cell lung,26.1 µM
same,TGI,ACHN renal,26.4 µM
same,TGI,OVCAR-3 ovarian,27.7 µM
same,TGI,MALME-3M melanoma,24.4 µM
same,TGI,CAKI-1 renal,31.2 µM
same,TGI,SK-MEL-28 melanoma,22.6 µM
same,TGI,TK-10 renal,31.8 µM
same,TGI,SK-MEL-5 melanoma,23.5 µM
same,TGI,HCC-2998 colon,28.7 µM
same,TGI,KM20L2 colon,41 µM
same,TGI,786-0 renal,24.5 µM
same,TGI,EKVX NSCLC,54.3 µM
same,TGI,A549 NSCLC,> 100 µM
same,TGI,LXFL 529 NSCLC,4.45 µM
same,TGI,HL-60(TB) leukemia,4.74 µM
same,TGI,SNB-75 CNS,29.5 µM
same,TGI,U251 CNS,23.7 µM
same,TGI,HOP-18 NSCLC,26.8 µM
same,TGI,LOX IMVI melanoma,6.07 µM
same,TGI,IGROV1 ovarian,33 µM
same,TGI,CCRF-CEM leukemia,10.6 µM
same,TGI,UO-31 renal,35.1 µM
same,TGI,OVCAR-5 ovarian,30 µM
same,TGI,OVCAR-4 ovarian,27.9 µM
same,TGI,OVCAR-8 ovarian,12.6 µM
same,TGI,UACC-62 melanoma,32.5 µM
same,TGI,MOLT-4 leukemia,10.2 µM
same,TGI,RPMI-8226 leukemia,7.2 µM
same,TGI,SN12C renal,> 100 µM
same,TGI,NCI-H23 lung,37.1 µM
same,TGI,NCI-H460 lung,39.7 µM
same,TGI,SW-620 colon,7.3 µM
same,TGI,SNB-19 CNS,27.3 µM
same,TGI,COLO 205 colon,30.6 µM
same,TGI,DLD-1 colon,20.9 µM
same,TGI,HOP-92 NSCLC,21.8 µM
same,TGI,HOP-62 NSCLC,51.7 µM
same,TGI,SF-268 CNS,27.6 µM
same,TGI,M14 melanoma,26.7 µM
same,TGI,SK-MEL-2 melanoma,36.9 µM
same,TGI,K-562 leukemia,13.8 µM
COc1cc(CNC2c3cc4c(cc3C(c3cc(OC)c(OC)c(OC)c3)[C@H]3C(=O)OCC23)OCO4)cc(OC)c1OC (stereo not given in full),TGI,HCT-15 colon,> 100 µM
same,TGI,M19-MEL melanoma,> 100 µM
same,TGI,SF-539 CNS,0.403 µM
same,TGI,KM12 colon,0.692 µM
same,TGI,HT29 colon,19.5 µM
same,TGI,SK-OV-3 ovarian,> 100 µM
same,TGI,SF-295 CNS,0.677 µM
same,TGI,UACC-257 melanoma,> 100 µM
same,TGI,NCI-H522 lung,0.262 µM
same,TGI,DMS 114 small cell lung,0.444 µM
same,TGI,ACHN renal,> 100 µM
same,TGI,OVCAR-3 ovarian,> 100 µM
same,TGI,MALME-3M melanoma,> 100 µM
same,TGI,TK-10 renal,> 100 µM
same,TGI,XF 498 CNS,8.07 µM
same,TGI,SK-MEL-5 melanoma,0.538 µM
same,TGI,HCC-2998 colon,13.1 µM
same,TGI,KM20L2 colon,0.359 µM
same,TGI,786-0 renal,> 100 µM
same,TGI,A549 NSCLC,> 100 µM
same,TGI,HCT-116 colon,0.707 µM
same,TGI,LXFL 529 NSCLC,> 100 µM
same,TGI,HL-60(TB) leukemia,0.515 µM
same,TGI,SNB-75 CNS,> 100 µM
same,TGI,HOP-18 NSCLC,> 100 µM
same,TGI,LOX IMVI melanoma,> 100 µM
same,TGI,IGROV1 ovarian,> 100 µM
same,TGI,CCRF-CEM leukemia,40.9 µM
same,TGI,UO-31 renal,> 100 µM
same,TGI,OVCAR-5 ovarian,> 100 µM
same,TGI,NCI-H226 lung,0.487 µM
same,TGI,UACC-62 melanoma,0.651 µM
same,TGI,MOLT-4 leukemia,> 100 µM
same,TGI,RPMI-8226 leukemia,79.2 µM
same,TGI,SN12C renal,> 100 µM
same,TGI,A498 renal,0.762 µM
same,TGI,SR leukemia,> 100 µM
same,TGI,NCI-H23 lung,0.77 µM
same,TGI,SW-620 colon,> 100 µM
same,TGI,SNB-19 CNS,> 100 µM
same,TGI,COLO 205 colon,0.37 µM
same,TGI,DLD-1 colon,> 100 µM
same,TGI,HOP-92 NSCLC,> 100 µM
same,TGI,HOP-62 NSCLC,0.631 µM
same,TGI,SF-268 CNS,> 100 µM
same,TGI,M14 melanoma,> 100 µM
same,TGI,SK-MEL-2 melanoma,> 100 µM
same,TGI,K-562 leukemia,> 100 µM
CCOC(=O)CC1(c2cccc3ccccc23)OC(=O)c2ccccc21 (stereo not given),TGI,DMS 273 small cell lung,> 100 µM
same,TGI,HCT-15 colon,> 100 µM
same,TGI,M19-MEL melanoma,> 100 µM
same,TGI,KM12 colon,> 100 µM
same,TGI,HT29 colon,> 100 µM
same,TGI,SK-OV-3 ovarian,> 100 µM
same,TGI,SF-295 CNS,> 100 µM
same,TGI,UACC-257 melanoma,> 100 µM
same,TGI,NCI-H522 lung,79.8 µM
same,TGI,DMS 114 small cell lung,> 100 µM
same,TGI,ACHN renal,> 100 µM
same,TGI,OVCAR-3 ovarian,> 100 µM
same,TGI,MALME-3M melanoma,96.2 µM
same,TGI,CAKI-1 renal,> 100 µM
same,TGI,SK-MEL-28 melanoma,> 100 µM
same,TGI,TK-10 renal,> 100 µM
same,TGI,SK-MEL-5 melanoma,63.8 µM
same,TGI,HCC-2998 colon,> 100 µM
same,TGI,KM20L2 colon,> 100 µM
same,TGI,EKVX NSCLC,> 100 µM
same,TGI,A549 NSCLC,> 100 µM
same,TGI,LXFL 529 NSCLC,> 100 µM
same,TGI,HL-60(TB) leukemia,54.1 µM
same,TGI,SNB-75 CNS,75.8 µM
same,TGI,U251 CNS,> 100 µM
same,TGI,HOP-18 NSCLC,> 100 µM
same,TGI,LOX IMVI melanoma,> 100 µM
same,TGI,IGROV1 ovarian,> 100 µM
same,TGI,CCRF-CEM leukemia,> 100 µM
same,TGI,UO-31 renal,65.9 µM
same,TGI,OVCAR-5 ovarian,> 100 µM
same,TGI,OVCAR-4 ovarian,> 100 µM
same,TGI,OVCAR-8 ovarian,> 100 µM
same,TGI,NCI-H226 lung,> 100 µM
same,TGI,UACC-62 melanoma,> 100 µM
same,TGI,MOLT-4 leukemia,82.4 µM
same,TGI,SNB-78 CNS,> 100 µM
same,TGI,RPMI-8226 leukemia,64.2 µM
same,TGI,RXF 393 renal,70.1 µM
same,TGI,SN12C renal,> 100 µM
same,TGI,A498 renal,> 100 µM
same,TGI,NCI-H23 lung,69.2 µM
same,TGI,NCI-H460 lung,> 100 µM
same,TGI,SW-620 colon,> 100 µM
same,TGI,SNB-19 CNS,> 100 µM
same,TGI,COLO 205 colon,98.5 µM
same,TGI,DLD-1 colon,> 100 µM
same,TGI,SF-268 CNS,> 100 µM
same,TGI,SK-MEL-2 melanoma,> 100 µM
same,TGI,K-562 leukemia,> 100 µM
